Measurements: patent US12065436B2, “Cardiac sarcomere inhibitors” (Cytokinetics, Inc., priority 2018, dated 2024)

Biological target: bovine cardiac myofibrils (full-length cardiac myosin ATPase in the native sarcomere) (Bos taurus (Bovine), UniProt Q9BE39)
Experiment: Skinned bovine cardiac myofibril ATPase assay (PK/LDH-coupled)
Type: biochemical
Details: Ca2+ activating to 75% of maximal rate; for CDMF75 IC15: concentration giving 15% inhibition; for IC50: read-out: CDMF75 IC50
Summary of the method: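 Inhibition of steady-state ATPase read at 340 nm through a PK/LDH-coupled NADH system (0.5 mM NADH, 1.5 mM PEP). Detergent-skinned bovine cardiac myofibrils, 1 mg/mL, were tested at pH 6.8 in PIPES/MgCl2 with 50 μM ATP and calcium adjusted to give pCa50 or pCa75 activation.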

Sequence of bovine cardiac myofibrils (full-length cardiac myosin ATPase in the native sarcomere) (Q9BE39 whole entry): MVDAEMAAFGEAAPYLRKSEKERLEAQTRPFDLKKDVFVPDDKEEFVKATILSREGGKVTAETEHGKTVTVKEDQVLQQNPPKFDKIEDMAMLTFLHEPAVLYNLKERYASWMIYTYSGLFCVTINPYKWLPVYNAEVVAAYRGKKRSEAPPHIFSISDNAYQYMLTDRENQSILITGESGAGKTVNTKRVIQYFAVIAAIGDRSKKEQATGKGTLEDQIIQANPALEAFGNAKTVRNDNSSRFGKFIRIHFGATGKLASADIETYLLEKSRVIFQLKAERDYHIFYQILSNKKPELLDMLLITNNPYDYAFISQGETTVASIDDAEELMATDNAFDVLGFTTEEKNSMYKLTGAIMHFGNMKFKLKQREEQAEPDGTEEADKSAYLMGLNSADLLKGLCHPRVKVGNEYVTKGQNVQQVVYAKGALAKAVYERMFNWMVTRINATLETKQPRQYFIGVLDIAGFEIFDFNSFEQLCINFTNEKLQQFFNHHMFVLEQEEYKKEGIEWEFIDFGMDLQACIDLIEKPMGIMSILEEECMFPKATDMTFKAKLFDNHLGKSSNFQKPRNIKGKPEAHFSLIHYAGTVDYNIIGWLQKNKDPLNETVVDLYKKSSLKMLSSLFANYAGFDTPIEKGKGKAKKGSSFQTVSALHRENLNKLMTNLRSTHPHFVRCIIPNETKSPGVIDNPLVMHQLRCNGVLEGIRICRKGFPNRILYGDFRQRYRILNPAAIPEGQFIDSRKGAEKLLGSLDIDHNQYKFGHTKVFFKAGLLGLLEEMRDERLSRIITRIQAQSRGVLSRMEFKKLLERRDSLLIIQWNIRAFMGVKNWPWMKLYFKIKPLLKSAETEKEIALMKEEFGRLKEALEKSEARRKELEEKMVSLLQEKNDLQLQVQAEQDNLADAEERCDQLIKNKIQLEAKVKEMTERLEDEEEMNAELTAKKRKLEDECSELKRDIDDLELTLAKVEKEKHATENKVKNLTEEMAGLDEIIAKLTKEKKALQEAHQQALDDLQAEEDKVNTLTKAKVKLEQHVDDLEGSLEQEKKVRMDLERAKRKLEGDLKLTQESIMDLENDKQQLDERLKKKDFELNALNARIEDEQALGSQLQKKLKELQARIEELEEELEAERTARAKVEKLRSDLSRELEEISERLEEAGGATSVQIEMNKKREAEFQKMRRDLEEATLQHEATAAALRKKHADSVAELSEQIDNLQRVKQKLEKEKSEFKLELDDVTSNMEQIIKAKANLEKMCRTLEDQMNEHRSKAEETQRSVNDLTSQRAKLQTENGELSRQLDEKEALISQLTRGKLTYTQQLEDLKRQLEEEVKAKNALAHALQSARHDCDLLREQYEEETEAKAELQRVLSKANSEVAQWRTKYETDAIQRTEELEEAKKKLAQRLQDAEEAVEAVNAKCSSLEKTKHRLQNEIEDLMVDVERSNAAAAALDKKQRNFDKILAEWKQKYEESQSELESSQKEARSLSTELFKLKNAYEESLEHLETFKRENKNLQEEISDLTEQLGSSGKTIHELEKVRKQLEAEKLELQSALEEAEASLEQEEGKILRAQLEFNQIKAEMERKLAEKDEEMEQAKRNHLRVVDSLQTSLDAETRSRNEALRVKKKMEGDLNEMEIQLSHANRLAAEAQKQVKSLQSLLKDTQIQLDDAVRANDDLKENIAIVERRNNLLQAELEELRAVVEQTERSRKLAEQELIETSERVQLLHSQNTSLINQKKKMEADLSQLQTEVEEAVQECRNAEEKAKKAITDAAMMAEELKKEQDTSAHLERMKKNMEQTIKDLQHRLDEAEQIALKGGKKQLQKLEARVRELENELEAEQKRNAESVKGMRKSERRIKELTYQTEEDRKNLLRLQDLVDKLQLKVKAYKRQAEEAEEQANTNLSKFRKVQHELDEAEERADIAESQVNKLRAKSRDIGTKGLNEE
Sequence of bovine cardiac myofibrils (full-length cardiac myosin ATPase in the native sarcomere) (P85100 whole entry partner): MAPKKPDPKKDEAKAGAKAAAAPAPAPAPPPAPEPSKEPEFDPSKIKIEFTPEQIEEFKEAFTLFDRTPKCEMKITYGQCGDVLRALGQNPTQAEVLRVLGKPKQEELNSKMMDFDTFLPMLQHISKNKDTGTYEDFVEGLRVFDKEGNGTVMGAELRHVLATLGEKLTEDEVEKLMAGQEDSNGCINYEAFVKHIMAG
Sequence of bovine cardiac myofibrils (full-length cardiac myosin ATPase in the native sarcomere) (Q3SZE5 whole entry partner): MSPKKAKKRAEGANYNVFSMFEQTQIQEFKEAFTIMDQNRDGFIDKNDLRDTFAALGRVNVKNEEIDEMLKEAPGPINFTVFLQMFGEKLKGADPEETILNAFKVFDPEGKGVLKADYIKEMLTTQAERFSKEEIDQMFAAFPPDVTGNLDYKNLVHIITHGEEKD

CDMF75 IC15 | IC50 | Compound
1.9 µM | 6.6 µM | CCc1nc(-c2ccc3c(c2)CC[C@H]3NC(=O)OCC2CN(C(N)=O)C2)no1 [Compound 362, (1-carbamoylazetidin-3-yl)methyl (R)-(5-(5-ethyl-1,2,4-oxadiazol-3-yl)-2,3-dihydro-1H-inden-1-yl)carbamate]
4.7 µM | 21.1 µM | CCc1nc(-c2ccc3c(c2)CC[C@H]3NC(=O)OCC2CN(C(=O)NC)C2)no1 [Compound 363, (1-(methylcarbamoyl)azetidin-3-yl)methyl (R)-(5-(5-ethyl-1,2,4-oxadiazol-3-yl)-2,3-dihydro-1H-inden-1-yl)carbamate]
1.6 µM | 6.8 µM | Cc1cc(-c2ccc3c(c2)OC[C@H]3NC(=O)c2nnn(C)n2)no1 [Compound 364, (S)-2-methyl-N-(6-(5-methylisoxazol-3-yl)-2,3-dihydrobenzofuran-3-yl)-2H-tetrazole-5-carboxamide]
8.6 µM | > 39.2 µM | Cn1nccc1C(=O)N[C@@H]1CCc2cc(-c3ncccn3)ccc21 [Compound 366, (R)-1-methyl-N-(5-(pyrimidin-2-yl)-2,3-dihydro-1H-inden-1-yl)-1H-pyrazole-5-carboxamide]
13.9 µM | > 39.2 µM | Cn1nccc1C(=O)N[C@@H]1CCc2cc(-c3ccccn3)ccc21 [Compound 367, (R)-1-methyl-N-(5-(pyridin-2-yl)-2,3-dihydro-1H-inden-1-yl)-1H-pyrazole-5-carboxamide]
17.6 µM | > 39.2 µM | Cn1nccc1C(=O)N[C@@H]1CCc2cc(-c3cnccn3)ccc21 [Compound 368, (R)-1-methyl-N-(5-(pyrazin-2-yl)-2,3-dihydro-1H-inden-1-yl)-1H-pyrazole-5-carboxamide]
39.2 µM | > 39.2 µM | Cn1nccc1C(=O)N[C@@H]1CCc2cc(-c3ccnnc3)ccc21 [Compound 369, (R)-1-methyl-N-(5-(pyridazin-4-yl)-2,3-dihydro-1H-inden-1-yl)-1H-pyrazole-5-carboxamide]
3.8 µM | 19.1 µM | Cn1nccc1C(=O)N[C@@H]1CCc2cc(-c3nccs3)ccc21 [Compound 370, (R)-1-methyl-N-(5-(thiazol-2-yl)-2,3-dihydro-1H-inden-1-yl)-1H-pyrazole-5-carboxamide]
0.7 µM | 2.9 µM | Cc1cnc(-c2ccc3c(c2)CC[C@H]3NC(=O)c2ccnn2C)s1 [Compound 371, (R)-1-methyl-N-(5-(5-methylthiazol-2-yl)-2,3-dihydro-1H-inden-1-yl)-1H-pyrazole-5-carboxamide]
3.5 µM | 15.7 µM | Cn1nccc1C(=O)N[C@@H]1CCc2cc(-c3ccccc3)ccc21 [Compound 372, (R)-1-methyl-N-(5-phenyl-2,3-dihydro-1H-inden-1-yl)-1H-pyrazole-5-carboxamide]
0.9 µM | 3.2 µM | Cc1cccc(-c2ccc3c(c2)CC[C@H]3NC(=O)c2ccnn2C)c1 [Compound 373, (R)-1-methyl-N-(5-(m-tolyl)-2,3-dihydro-1H-inden-1-yl)-1H-pyrazole-5-carboxamide]
1.7 µM | 6.4 µM | Cc1ccc(-c2ccc3c(c2)CC[C@H]3NC(=O)c2ccnn2C)cc1 [Compound 374, (R)-1-methyl-N-(5-(p-tolyl)-2,3-dihydro-1H-inden-1-yl)-1H-pyrazole-5-carboxamide]
10.6 µM | > 39.2 µM | Cc1ccc(-c2ccc3c(c2)CC[C@H]3NC(=O)c2ccnn2C)cn1 [Compound 375, (R)-1-methyl-N-(5-(6-methylpyridin-3-yl)-2,3-dihydro-1H-inden-1-yl)-1H-pyrazole-5-carboxamide]
3.9 µM | 18.5 µM | Cc1cncc(-c2ccc3c(c2)CC[C@H]3NC(=O)c2ccnn2C)c1 [Compound 376, (R)-1-methyl-N-(5-(5-methylpyridin-3-yl)-2,3-dihydro-1H-inden-1-yl)-1H-pyrazole-5-carboxamide]
4.5 µM | 17.8 µM | Cc1cccc(-c2ccc3c(c2)CC[C@H]3NC(=O)c2ccnn2C)n1 [Compound 377, (R)-1-methyl-N-(5-(6-methylpyridin-2-yl)-2,3-dihydro-1H-inden-1-yl)-1H-pyrazole-5-carboxamide]
2.1 µM | 12.2 µM | Cc1ccnc(-c2ccc3c(c2)CC[C@H]3NC(=O)c2ccnn2C)n1 [Compound 378, (R)-1-methyl-N-(5-(4-methylpyrimidin-2-yl)-2,3-dihydro-1H-inden-1-yl)-1H-pyrazole-5-carboxamide]
39.2 µM | > 39.2 µM | Cc1nccc(-c2ccc3c(c2)CC[C@H]3NC(=O)c2ccnn2C)n1 [Compound 379, (R)-1-methyl-N-(5-(2-methylpyrimidin-4-yl)-2,3-dihydro-1H-inden-1-yl)-1H-pyrazole-5-carboxamide]

CDMF75 IC15 | IC50 | Compound
2.2 µM | 10.3 µM | Cc1ccnc(-c2ccc3c(c2)CC[C@H]3NC(=O)c2ccnn2C)c1 [Compound 380, (R)-1-methyl-N-(5-(4-methylpyridin-2-yl)-2,3-dihydro-1H-inden-1-yl)-1H-pyrazole-5-carboxamide]
39.2 µM | > 39.2 µM | Cc1cc(-c2ccc3c(c2)CC[C@H]3NC(=O)c2ccnn2C)ncn1 [Compound 381, (R)-1-methyl-N-(5-(6-methylpyrimidin-4-yl)-2,3-dihydro-1H-inden-1-yl)-1H-pyrazole-5-carboxamide]
2.7 µM | 10.1 µM | Cc1cncc(-c2ccc3c(c2)CC[C@H]3NC(=O)c2ccnn2C)n1 [Compound 382, (R)-1-methyl-N-(5-(6-methylpyrazin-2-yl)-2,3-dihydro-1H-inden-1-yl)-1H-pyrazole-5-carboxamide]
3.4 µM | 11.6 µM | Cc1cnnc(-c2ccc3c(c2)CC[C@H]3NC(=O)c2ccnn2C)c1 [Compound 383, (R)-1-methyl-N-(5-(5-methylpyridazin-3-yl)-2,3-dihydro-1H-inden-1-yl)-1H-pyrazole-5-carboxamide]
39.2 µM | > 39.2 µM | Cc1cc(-c2ccc3c(c2)CC[C@H]3NC(=O)c2ccnn2C)cnn1 [Compound 384, (R)-1-methyl-N-(5-(6-methylpyridazin-4-yl)-2,3-dihydro-1H-inden-1-yl)-1H-pyrazole-5-carboxamide]
0.5 µM | 1.7 µM | CCc1nc(-c2ccc3c(c2)CC[C@H]3NC(=O)c2cnc(C)o2)no1 [Compound 385, (R)-N-(5-(5-ethyl-1,2,4-oxadiazol-3-yl)-2,3-dihydro-1H-inden-1-yl)-2-methyloxazole-5-carboxamide]
0.3 µM | 0.8 µM | CCc1nc(-c2ccc3c(c2)CC[C@H]3NC(=O)c2ocnc2C)no1 [Compound 386, (R)-N-(5-(5-ethyl-1,2,4-oxadiazol-3-yl)-2,3-dihydro-1H-inden-1-yl)-4-methyloxazole-5-carboxamide]
0.6 µM | 1.9 µM | Cc1cc(C(=O)N[C@@H]2CCc3cc(-c4noc(C5CC5)n4)ccc32)ccn1 [Compound 389, (R)-N-(5-(5-cyclopropyl-1,2,4-oxadiazol-3-yl)-2,3-dihydro-1H-inden-1-yl)-2-methylisonicotinamide]
0.4 µM | 1 µM | Cc1ncoc1C(=O)N[C@@H]1CCc2cc(-c3noc(C4CC4)n3)ccc21 [Compound 390, (R)-N-(5-(5-cyclopropyl-1,2,4-oxadiazol-3-yl)-2,3-dihydro-1H-inden-1-yl)-4-methyloxazole-5-carboxamide]
1.3 µM | 4.6 µM | Cc1ncc(C(=O)N[C@@H]2CCc3cc(-c4noc(C(C)C)n4)ccc32)o1 [Compound 391, (R)-N-(5-(5-isopropyl-1,2,4-oxadiazol-3-yl)-2,3-dihydro-1H-inden-1-yl)-2-methyloxazole-5-carboxamide]
0.9 µM | 2.7 µM | Cc1cc(C(=O)N[C@@H]2CCc3cc(-c4noc(C(C)C)n4)ccc32)ccn1 [Compound 392, (R)-N-(5-(5-isopropyl-1,2,4-oxadiazol-3-yl)-2,3-dihydro-1H-inden-1-yl)-2-methylisonicotinamide]
0.4 µM | 1.2 µM | Cc1ncoc1C(=O)N[C@@H]1CCc2cc(-c3noc(C(C)C)n3)ccc21 [Compound 393, (R)-N-(5-(5-isopropyl-1,2,4-oxadiazol-3-yl)-2,3-dihydro-1H-inden-1-yl)-4-methyloxazole-5-carboxamide]
1.2 µM | 4.1 µM | CC(C)c1nc(-c2ccc3c(c2)CC[C@H]3NC(=O)c2cnn(C)c2)no1 [Compound 394, (R)-N-(5-(5-isopropyl-1,2,4-oxadiazol-3-yl)-2,3-dihydro-1H-inden-1-yl)-1-methyl-1H-pyrazole-4-carboxamide]
3.1 µM | 13.5 µM | CC(=O)N[C@@H]1CCc2cc(-c3noc(C(C)C)n3)ccc21 [Compound 395, (R)-N-(5-(5-isopropyl-1,2,4-oxadiazol-3-yl)-2,3-dihydro-1H-inden-1-yl)acetamide]
0.4 µM | 1.6 µM | Cc1n[nH]cc1C(=O)N[C@@H]1CCc2cc(-c3noc(C(C)C)n3)ccc21 [Compound 396, (R)-N-(5-(5-isopropyl-1,2,4-oxadiazol-3-yl)-2,3-dihydro-1H-inden-1-yl)-3-methyl-1H-pyrazole-4-carboxamide]
0.9 µM | 3.2 µM | COCc1nc(-c2ccc3c(c2)CC[C@H]3NC(=O)c2c[nH]nc2C)no1 [Compound 397, (R)-N-(5-(5-(methoxymethyl)-1,2,4-oxadiazol-3-yl)-2,3-dihydro-1H-inden-1-yl)-3-methyl-1H-pyrazole-4-carboxamide]
